One data set relates to C57/BL/6J mice. Nature of the data set: Novel object recognition test in mice. It counts as in vivo, mouse. The note with it: intraperitoneal route, 30 min before training, memory assessed 24 h after training. How it is done: Novel object memory was assessed during three sessions. This task relies on the innate tendency of a mouse to explore unfamiliar objects vs. familiar objects. Testing was performed in an open-field arena. 24 h prior to training, C57/BL/6J 5-week male mice were habituated to the arena for 10 min (session 1).
During training, mice were administered by intraperitoneal route with the vehicle or the tested compound and after 30 min they were allowed for 5 min to explore two identical objects (A+A, session 2). Long-term object memory was assessed 24 h after the completion of training during which mice were given 5 min to explore the familiar (A) or the novel (B) object (A+B, session 3). The duration of exploration (defined as the mouse's snout or forelimbs physically touching or approaching within 1 cm of an object) of familiar and novel object was measured. The amount of time spent exploring the novel object over the total time exploring both novel and familiar object in each session was used to measure object memory.
For instance, and in particular the activity of compound of Example 34, expressed as MED (Minimal Effective Dose that induces statistically significant difference of exploration of the two objects) is of 10 mg/kg. Statistical analysis of exploration time values, was performed by using a paired Student's test, which was calculated using GraphPad Prisma 4.

The target in data set [1] is T1, human mGlu5 receptor (Homo sapiens (Human), UniProt P41594). Nature of the data set: Fold shift of agonist curve determination. It counts as cell-based. The note with it: ratio of EC50 agonist (quisqualate or glutamate) curves in presence and in absence of test compound; compound at 1 μM. From the text:
(§1) Cell lines stably transfected were generated using inducible expression vectors encoding human mGlu5 receptor using the Tetracycline-Regulated Expression system (T-REx™ system, Invitrogen, Life Technologies). Human mGluR5 open reading frame (ORF), comprehensive of the stop codon, were cloned into the pcDNA4/TO/myc-His™ A vector, carrying the TetO2. The insertion site was HindIII-PstI for mGluR5 receptors. The obtained constructs were then transfected into the T-REx CHO™ cell line using the FuGENE protocol (Roche); the CHO T-REx™ cell line stably expresses the Tet repressor (from the pcDNA6/TR plasmid) under the selection of blasticidin, 10 μg/ml. Stable clones were obtained selecting with zeocin 1 mg/ml and maintaining in ULTRA CHO medium (LONZA) supplemented with dialyzed FBS, zeocin, blasticidine, at 37° C., in an atmosphere of 5% CO2. The expression of h-mGluR5 receptors was de-repressed with 1 μg/ml tetracycline for 18 h before binding experimentation, while the expression of h-mGluR5 receptors was derepressed respectively with 3 ng/ml and 10 ng/ml tetracycline for 18 h before calcium fluorescence experimentation.
(§2) Cells were seeded into black-walled, clear-bottom, 96-well plates at a density of 80000 cell/well, in RPMI (without Phenol Red, without L-glutamine; Gibco LifeTechnologies, CA) supplemented with 10% dialyzed FBS. Following 18-h incubation with tetracycline, the cells were loaded with […] Ca^2+-sensitive fluorescent dye Fluo-4/AM (Molecular Probes) in Hanks' balanced saline solution (HBSS, Gibco LifeTechnologies, CA) with […] Hepes (Sigma) and 2.5 mM probenecid (Sigma), for 1 h at 37° C. The cells were washed three times with HBSS to remove extracellular dye. Fluorescence signals were measured by using the fluorescence microplate reader Flexstation III (Molecular Devices) at sampling intervals of 1.5 s for 60 s.
The PAM potency was evaluated by performing an agonist concentration response curve in the presence of the compounds. The compounds at fixed concentration (0.01 or 0.1 or 1 μM) were applied 10 minutes before the incubation of the agonist (quisqualate or glutamate) dose-response curve. The fold shift was determined as ratio of EC50 agonist curves in presence and in absence of test compound. For instance, and in particular compound 34 has a fold shift of 2.7.

Data set [2] deals with T1, human mGlu5 receptor. The data set is described as follows: Calcium fluorescence measurements, potentiation of mGlu5 activation (positive allosteric modulator activity). The data set is classed as cell-based. The note with it: EC20 of the agonist (quisqualate or glutamate), compounds applied 10 minutes before agonist.
Text: as §1, §2
The antagonist potency was determined using the EC80 of the quisqualate used as agonist and the potentiation of mGlu5 activation was determined using the EC20 of the agonist (quisqualate or glutamate). The compounds were applied 10 minutes before the application of the agonist.
The negative allosteric modulator activity (expressed as IC50) and the positive allosteric modulator activity (expressed as EC50) of the compounds of the invention for the mGlu5 receptors is between 0.1 and 1000 nM.

The target of a further data set is human mGluR5 receptor (Homo sapiens (Human), UniProt P41594). The data set is described as follows: Radioligand binding assay at cloned human mGluR5 receptor subtype ([3H]MPEP). The note with it: 4 nM [3H]MPEP, CHO T-REx h-mGluR5 cells, 60 min at 25° C.; read-out: mGlu5 Ki.
human mGluR5 receptor, sequence (P41594 21-1212): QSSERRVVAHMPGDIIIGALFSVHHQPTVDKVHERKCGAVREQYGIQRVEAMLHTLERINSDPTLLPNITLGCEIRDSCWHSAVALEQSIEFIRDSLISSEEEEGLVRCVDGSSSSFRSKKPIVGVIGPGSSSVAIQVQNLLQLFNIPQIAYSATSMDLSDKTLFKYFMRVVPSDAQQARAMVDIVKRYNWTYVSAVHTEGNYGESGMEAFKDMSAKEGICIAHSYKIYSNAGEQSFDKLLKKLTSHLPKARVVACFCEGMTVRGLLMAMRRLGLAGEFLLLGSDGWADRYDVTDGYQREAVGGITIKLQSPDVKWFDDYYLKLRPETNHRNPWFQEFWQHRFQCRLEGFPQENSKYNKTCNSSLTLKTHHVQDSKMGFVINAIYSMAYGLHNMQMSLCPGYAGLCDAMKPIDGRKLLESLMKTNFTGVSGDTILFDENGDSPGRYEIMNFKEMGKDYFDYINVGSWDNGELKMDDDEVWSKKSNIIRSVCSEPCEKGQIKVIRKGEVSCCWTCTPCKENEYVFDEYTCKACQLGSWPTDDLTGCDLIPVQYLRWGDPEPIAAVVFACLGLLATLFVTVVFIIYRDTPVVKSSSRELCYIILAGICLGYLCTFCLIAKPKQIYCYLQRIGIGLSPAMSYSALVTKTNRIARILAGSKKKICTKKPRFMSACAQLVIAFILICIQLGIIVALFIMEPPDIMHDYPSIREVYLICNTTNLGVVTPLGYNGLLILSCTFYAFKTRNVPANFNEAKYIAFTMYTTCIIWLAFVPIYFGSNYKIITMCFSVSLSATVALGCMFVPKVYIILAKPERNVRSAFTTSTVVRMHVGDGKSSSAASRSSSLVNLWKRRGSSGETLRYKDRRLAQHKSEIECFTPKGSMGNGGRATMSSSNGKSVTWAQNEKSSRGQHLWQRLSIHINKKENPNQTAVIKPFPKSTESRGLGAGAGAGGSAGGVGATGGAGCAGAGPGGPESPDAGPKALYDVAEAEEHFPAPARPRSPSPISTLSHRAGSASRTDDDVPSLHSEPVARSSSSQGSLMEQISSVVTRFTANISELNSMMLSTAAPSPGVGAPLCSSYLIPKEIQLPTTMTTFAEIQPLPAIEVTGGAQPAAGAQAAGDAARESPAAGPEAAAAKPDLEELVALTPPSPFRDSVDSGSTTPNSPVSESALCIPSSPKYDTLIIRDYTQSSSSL
Text: as §1
Radioligand Binding Assay at Cloned Human mGluR5 Receptor Subtype
Affinity at transmembrane glutamate metabotropic cloned human mGluR5 receptor was evaluated according to the methods of Anderson (Anderson et al., J Pharmacol. Exp. Ther., (2002), Vol. 303(3), pp. 1044-51), with some modifications. Human cloned mGluR5 was obtained by re-suspending CHO T-REx h-mGluR5 cells (50 μg/well) in 20 mM HEPES, 2 mM MgCl2, 2 mM CaCl2, pH 7.4, that then were incubated in a final volume of 1 ml for 60 min at 25° C. with 4 nM [^3H]MPEP in the absence or presence of competing drugs. Non-specific binding was determined in the presence of 10 μM MPEP. The incubation was stopped by addition of cold Tris buffer pH 7.4 and rapid filtration through 0.2% polyethyleneimine pretreated Filtermat 1204-401 (Perkin Elmer) filters. The filters were then washed with cold buffer and the radioactivity retained on the filters was counted by liquid scintillation spectrometry (Betaplate 1204 BS-Wallac).
The inhibition curves of the tested compounds at cloned mGluR5 subtypes were determined by nonlinear regression analysis using software Prism 4.0 (Graphpad, San Diego, Calif.). The IC50 values and pseudo-Hill slope coefficients were estimated by the program. The values for the inhibition constant, Ki, were calculated according to the equation Ki=IC50/(1+[L]/Kd), where [L] is the concentration of radioligand and Kd is the equilibrium dissociation constant of the radioligand-receptor complex (Cheng et al., Biochem. Pharmacol. (1973), Vol. 22, pp. 3099-3108).

SMILES strings stand for the structures.

T1 sequence (P41594 21-1212): as above

A word on the EC50: it is the concentration giving half of the maximal effect. As a reminder, the Ki is the equilibrium dissociation constant of an inhibitor or competing ligand from its target. For `CC1(C)CN(C(=O)c2cccc(Cl)c2)CC/C1=C\C#Cc1cccc(Cl)c1` [Example 34, (3-chlorophenyl){(4E)-4-[3-(3-chlorophenyl)prop-2-yn-1-ylidene]-3,3-dimethylpiperidin-1-yl}methanone], the “MED (Minimal Effective Dose that induces statistically significant difference of exploration of the two objects)” value with C57/BL/6J mice amounted to 10 mg/kg. In addition, the “mGlu5 Fold Shift @1 μM” value at human mGlu5 receptor [1] was 2.7. Moreover, the concentration giving a half-maximal response (EC50) at human mGlu5 receptor [2] was found to be 107 nM. In addition, the Ki at human mGluR5 receptor came out at 0.99 nM.

These data come from patent publication US11440922B2, “Heterocyclylmethylidene derivatives and their use as modulators of mGluR5 receptors” (Recordati Industria Chimica e Farmaceutica S.p.A., priority 2017, dated 2022).
